Results published in ChEMBL document CHEMBL4507275, “Data for DCP probe BI-2545” (2021).

Columns and labels:
[1] = tested on: Tyrosine-protein kinase ABL1 (Homo sapiens), P00519 [E255K]; conditions: Compound concentration 1000.0 nM
[2] = tested on: Tyrosine-protein kinase ABL1 (Homo sapiens), P00519 [Q252H]; conditions: Compound concentration 1000.0 nM
[3] = tested on: ALK tyrosine kinase receptor (Homo sapiens), Q9UM73 [L1196M]; conditions: Compound concentration 1000.0 nM
[4] = target: Protein-tyrosine kinase 6 (Homo sapiens) (UniProt Q13882); conditions: Compound concentration 1000.0 nM
[5] = target: Calcium/calmodulin-dependent protein kinase type 1 (Homo sapiens) (UniProt Q14012); conditions: Compound concentration 1000.0 nM
[6] = target: Peripheral plasma membrane protein CASK (Homo sapiens) (UniProt O14936); conditions: Compound concentration 1000.0 nM
[7] = target: Cyclin-dependent kinase 2 (Homo sapiens) (UniProt P24941); conditions: Compound concentration 1000.0 nM
[8] = target: Cyclin-dependent kinase 8 (Homo sapiens) (UniProt P49336); conditions: Compound concentration 1000.0 nM
[9] = target: Death-associated protein kinase 1 (Homo sapiens) (UniProt P53355); conditions: Compound concentration 1000.0 nM
[10] = tested on: Epidermal growth factor receptor (Homo sapiens), P00533 [G719S]; conditions: Compound concentration 1000.0 nM
[11] = target: Eukaryotic translation initiation factor 2-alpha kinase 1 (Homo sapiens) (UniProt Q9BQI3); conditions: Compound concentration 1000.0 nM
[12] = target: Mitogen-activated protein kinase 1 (Homo sapiens) (UniProt P28482); conditions: Compound concentration 1000.0 nM
[13] = tested on: Receptor-type tyrosine-protein kinase FLT3 (Homo sapiens), P36888 [D835H]; conditions: Compound concentration 1000.0 nM
[14] = target: G protein-coupled receptor kinase 3 (Homo sapiens) (UniProt P35626); conditions: Compound concentration 1000.0 nM
[15] = target: G protein-coupled receptor kinase 4 (Homo sapiens) (UniProt P32298); conditions: Compound concentration 1000.0 nM
[16] = target: Homeodomain-interacting protein kinase 4 (Homo sapiens) (UniProt Q8NE63); conditions: Compound concentration 1000.0 nM
[17] = target: Serine/threonine-protein kinase ICK (Homo sapiens) (UniProt Q9UPZ9); conditions: Compound concentration 1000.0 nM
[18] = target: Insulin receptor (Homo sapiens) (UniProt P06213); conditions: Compound concentration 1000.0 nM
[19] = target: Interleukin-1 receptor-associated kinase 1 (Homo sapiens) (UniProt P51617); conditions: Compound concentration 1000.0 nM
[20] = target: Tyrosine-protein kinase JAK3 (Homo sapiens) (UniProt P52333); conditions: Compound concentration 1000.0 nM
[21] = target: Mast/stem cell growth factor receptor Kit (Homo sapiens) (UniProt P10721); conditions: Compound concentration 1000.0 nM
[22] = tested on: Mast/stem cell growth factor receptor Kit (Homo sapiens), P10721 [A829P]; conditions: Compound concentration 1000.0 nM
[23] = target: Mitogen-activated protein kinase kinase kinase 1 (Homo sapiens) (UniProt Q13233); conditions: Compound concentration 1000.0 nM
[24] = target: Serine/threonine-protein kinase MARK1 (Homo sapiens) (UniProt Q9P0L2); conditions: Compound concentration 1000.0 nM
[25] = target: Mitogen-activated protein kinase kinase kinase 11 (Homo sapiens) (UniProt Q16584); conditions: Compound concentration 1000.0 nM
[26] = target: Macrophage-stimulating protein receptor (Homo sapiens) (UniProt Q04912); conditions: Compound concentration 1000.0 nM
[27] = target: Serine/threonine-protein kinase mTOR (Homo sapiens) (UniProt P42345); conditions: Compound concentration 1000.0 nM
[28] = target: Myosin-IIIa (Homo sapiens) (UniProt Q8NEV4); conditions: Compound concentration 1000.0 nM
[29] = target: Serine/threonine-protein kinase Nek6 (Homo sapiens) (UniProt Q9HC98); conditions: Compound concentration 1000.0 nM
[30] = target: Platelet-derived growth factor receptor alpha (Homo sapiens) (UniProt P16234); conditions: Compound concentration 1000.0 nM
[31] = tested on: Phosphatidylinositol 4,5-bisphosphate 3-kinase catalytic subunit alpha isoform (Homo sapiens), P42336 [H1047L]; conditions: Compound concentration 1000.0 nM
[32] = target: 1-phosphatidylinositol 3-phosphate 5-kinase (Homo sapiens) (UniProt Q9Y2I7); conditions: Compound concentration 1000.0 nM
[33] = target: Serine/threonine-protein kinase PLK3 (Homo sapiens) (UniProt Q9H4B4); conditions: Compound concentration 1000.0 nM
[34] = target: Serine/threonine-protein kinase D1 (Homo sapiens) (UniProt Q15139); conditions: Compound concentration 1000.0 nM
[35] = target: Proto-oncogene tyrosine-protein kinase ROS (Homo sapiens) (UniProt P08922); conditions: Compound concentration 1000.0 nM
[36] = target: Serine/threonine-protein kinase Sgk2 (Homo sapiens) (UniProt Q9HBY8); conditions: Compound concentration 1000.0 nM
[37] = target: Serine/threonine-protein kinase Sgk3 (Homo sapiens) (UniProt Q96BR1); conditions: Compound concentration 1000.0 nM
[38] = target: TGF-beta receptor type-2 (Homo sapiens) (UniProt P37173); conditions: Compound concentration 1000.0 nM
[39] = target: Tyrosine-protein kinase receptor Tie-1 (Homo sapiens) (UniProt P35590); conditions: Compound concentration 1000.0 nM
[40] = target: Angiopoietin-1 receptor (Homo sapiens) (UniProt Q02763); conditions: Compound concentration 1000.0 nM
[41] = target: BDNF/NT-3 growth factors receptor (Homo sapiens) (UniProt Q16620); conditions: Compound concentration 1000.0 nM
[42] = target: Mitogen-activated protein kinase kinase kinase 19 (Homo sapiens) (UniProt Q56UN5); conditions: Compound concentration 1000.0 nM
[43] = target: Tyrosine-protein kinase ZAP-70 (Homo sapiens) (UniProt P43403); conditions: Compound concentration 1000.0 nM
[44] = target: 5-hydroxytryptamine receptor 1B (Homo sapiens) (UniProt P28222); conditions: Compound concentration 10.0 uM
[45] = target: Beta-3 adrenergic receptor (Homo sapiens) (UniProt P13945); conditions: Compound concentration 10.0 uM
Beta-3 adrenergic receptor (Homo sapiens), sequence (P13945 whole entry, looked up): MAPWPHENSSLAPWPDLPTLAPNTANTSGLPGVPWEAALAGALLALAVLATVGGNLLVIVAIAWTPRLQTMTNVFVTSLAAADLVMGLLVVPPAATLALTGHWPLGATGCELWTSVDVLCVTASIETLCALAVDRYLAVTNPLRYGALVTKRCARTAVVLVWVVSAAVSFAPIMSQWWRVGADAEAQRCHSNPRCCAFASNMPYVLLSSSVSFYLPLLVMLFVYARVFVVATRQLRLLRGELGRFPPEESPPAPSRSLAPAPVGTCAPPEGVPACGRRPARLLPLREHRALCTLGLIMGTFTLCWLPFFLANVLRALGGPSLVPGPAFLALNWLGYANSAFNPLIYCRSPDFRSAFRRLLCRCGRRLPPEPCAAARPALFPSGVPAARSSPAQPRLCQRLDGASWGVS

Calcium/calmodulin-dependent protein kinase type 1 (Homo sapiens), sequence (Q14012 whole entry, looked up): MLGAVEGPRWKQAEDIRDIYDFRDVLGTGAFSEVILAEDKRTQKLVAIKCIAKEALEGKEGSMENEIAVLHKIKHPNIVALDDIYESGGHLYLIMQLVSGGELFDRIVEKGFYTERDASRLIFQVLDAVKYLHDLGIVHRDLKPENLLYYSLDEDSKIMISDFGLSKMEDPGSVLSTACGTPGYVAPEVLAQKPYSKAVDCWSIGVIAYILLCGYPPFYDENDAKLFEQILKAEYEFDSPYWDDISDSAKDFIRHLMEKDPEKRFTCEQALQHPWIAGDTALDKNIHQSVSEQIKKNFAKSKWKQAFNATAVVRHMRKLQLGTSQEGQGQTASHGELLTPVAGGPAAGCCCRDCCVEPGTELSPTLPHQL
Homeodomain-interacting protein kinase 4 (Homo sapiens), sequence (Q8NE63 whole entry): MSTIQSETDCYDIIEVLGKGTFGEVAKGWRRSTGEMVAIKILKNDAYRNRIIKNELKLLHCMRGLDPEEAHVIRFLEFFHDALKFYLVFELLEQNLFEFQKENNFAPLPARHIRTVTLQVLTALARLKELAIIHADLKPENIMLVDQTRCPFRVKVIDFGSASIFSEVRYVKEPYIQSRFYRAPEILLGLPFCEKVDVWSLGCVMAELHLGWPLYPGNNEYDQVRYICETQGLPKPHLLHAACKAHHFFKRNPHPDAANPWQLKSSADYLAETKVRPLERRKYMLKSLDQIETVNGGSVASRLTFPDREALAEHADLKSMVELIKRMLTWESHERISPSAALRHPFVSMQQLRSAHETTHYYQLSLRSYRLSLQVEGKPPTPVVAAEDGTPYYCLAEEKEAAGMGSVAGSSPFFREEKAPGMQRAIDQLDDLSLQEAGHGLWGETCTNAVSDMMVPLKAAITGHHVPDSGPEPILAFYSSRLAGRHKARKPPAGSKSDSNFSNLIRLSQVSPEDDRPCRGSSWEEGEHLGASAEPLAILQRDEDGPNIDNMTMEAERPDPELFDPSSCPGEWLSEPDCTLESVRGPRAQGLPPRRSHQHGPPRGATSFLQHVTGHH
Tyrosine-protein kinase JAK3 (Homo sapiens), sequence (P52333 whole entry): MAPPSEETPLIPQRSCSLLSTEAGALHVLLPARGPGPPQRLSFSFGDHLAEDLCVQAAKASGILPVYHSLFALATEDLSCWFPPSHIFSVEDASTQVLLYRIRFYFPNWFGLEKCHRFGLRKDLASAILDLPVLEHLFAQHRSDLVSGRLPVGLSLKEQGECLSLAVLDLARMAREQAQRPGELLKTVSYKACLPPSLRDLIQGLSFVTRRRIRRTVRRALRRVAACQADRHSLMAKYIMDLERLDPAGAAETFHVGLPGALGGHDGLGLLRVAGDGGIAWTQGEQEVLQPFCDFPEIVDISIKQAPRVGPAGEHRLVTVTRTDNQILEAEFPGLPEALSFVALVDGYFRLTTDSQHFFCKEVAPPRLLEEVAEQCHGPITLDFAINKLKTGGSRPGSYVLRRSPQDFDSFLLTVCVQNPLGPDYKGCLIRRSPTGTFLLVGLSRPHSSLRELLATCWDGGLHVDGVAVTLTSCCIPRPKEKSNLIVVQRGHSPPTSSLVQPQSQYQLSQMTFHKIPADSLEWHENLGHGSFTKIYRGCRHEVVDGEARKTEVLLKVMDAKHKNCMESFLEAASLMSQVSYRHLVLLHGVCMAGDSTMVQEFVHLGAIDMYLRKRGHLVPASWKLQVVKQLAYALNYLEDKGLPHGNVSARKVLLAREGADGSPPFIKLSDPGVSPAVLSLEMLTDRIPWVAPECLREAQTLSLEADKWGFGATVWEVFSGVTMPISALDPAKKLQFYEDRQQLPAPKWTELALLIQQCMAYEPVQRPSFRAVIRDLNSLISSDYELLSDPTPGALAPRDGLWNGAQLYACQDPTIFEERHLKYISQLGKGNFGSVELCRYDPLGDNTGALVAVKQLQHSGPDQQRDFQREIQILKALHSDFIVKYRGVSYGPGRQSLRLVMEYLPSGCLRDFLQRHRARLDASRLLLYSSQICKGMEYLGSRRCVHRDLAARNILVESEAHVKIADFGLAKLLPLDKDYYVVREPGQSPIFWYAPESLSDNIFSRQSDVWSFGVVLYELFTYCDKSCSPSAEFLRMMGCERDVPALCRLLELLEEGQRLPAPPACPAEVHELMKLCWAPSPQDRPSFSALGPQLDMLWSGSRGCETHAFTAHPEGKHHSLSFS
Tyrosine-protein kinase receptor Tie-1 (Homo sapiens), sequence (P35590 whole entry): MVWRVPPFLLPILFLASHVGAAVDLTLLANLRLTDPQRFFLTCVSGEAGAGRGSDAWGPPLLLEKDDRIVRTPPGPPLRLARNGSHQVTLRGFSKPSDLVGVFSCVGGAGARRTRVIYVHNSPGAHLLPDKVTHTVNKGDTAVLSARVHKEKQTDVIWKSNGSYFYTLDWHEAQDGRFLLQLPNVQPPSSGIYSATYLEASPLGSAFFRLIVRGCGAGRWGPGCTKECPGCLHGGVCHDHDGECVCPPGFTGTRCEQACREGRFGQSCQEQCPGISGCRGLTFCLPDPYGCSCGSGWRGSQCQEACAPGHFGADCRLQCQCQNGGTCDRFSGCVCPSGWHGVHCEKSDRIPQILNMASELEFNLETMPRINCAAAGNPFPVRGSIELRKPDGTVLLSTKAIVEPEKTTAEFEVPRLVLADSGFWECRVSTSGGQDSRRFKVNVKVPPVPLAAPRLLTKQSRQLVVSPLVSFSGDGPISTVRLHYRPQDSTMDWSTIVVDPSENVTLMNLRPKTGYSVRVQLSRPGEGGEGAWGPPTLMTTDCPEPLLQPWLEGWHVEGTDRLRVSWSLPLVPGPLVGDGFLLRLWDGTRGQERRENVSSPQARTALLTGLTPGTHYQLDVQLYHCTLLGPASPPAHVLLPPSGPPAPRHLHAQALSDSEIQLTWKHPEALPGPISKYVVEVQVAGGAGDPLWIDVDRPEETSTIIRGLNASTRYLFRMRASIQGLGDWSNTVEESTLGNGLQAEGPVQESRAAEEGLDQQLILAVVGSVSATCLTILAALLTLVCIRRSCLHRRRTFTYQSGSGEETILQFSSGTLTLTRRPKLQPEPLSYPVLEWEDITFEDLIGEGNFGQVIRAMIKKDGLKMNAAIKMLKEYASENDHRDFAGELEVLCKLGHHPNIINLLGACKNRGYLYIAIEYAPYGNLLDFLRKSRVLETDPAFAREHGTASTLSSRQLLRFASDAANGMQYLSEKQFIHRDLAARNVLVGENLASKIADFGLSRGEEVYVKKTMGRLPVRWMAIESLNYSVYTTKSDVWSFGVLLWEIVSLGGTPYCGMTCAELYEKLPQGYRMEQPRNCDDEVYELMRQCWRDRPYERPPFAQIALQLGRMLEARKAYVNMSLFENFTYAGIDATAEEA
5-hydroxytryptamine receptor 1B (Homo sapiens), sequence (P28222 whole entry): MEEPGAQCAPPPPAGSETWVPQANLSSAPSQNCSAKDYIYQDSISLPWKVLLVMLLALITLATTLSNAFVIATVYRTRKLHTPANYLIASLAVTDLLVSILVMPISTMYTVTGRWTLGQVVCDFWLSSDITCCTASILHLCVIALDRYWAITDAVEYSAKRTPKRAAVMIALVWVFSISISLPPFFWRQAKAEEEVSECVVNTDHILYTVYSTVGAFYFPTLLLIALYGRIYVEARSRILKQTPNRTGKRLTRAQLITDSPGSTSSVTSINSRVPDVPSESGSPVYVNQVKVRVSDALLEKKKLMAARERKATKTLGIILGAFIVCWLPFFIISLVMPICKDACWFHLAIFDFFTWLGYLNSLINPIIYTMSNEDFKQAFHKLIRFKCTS
G protein-coupled receptor kinase 3 (Homo sapiens), sequence (P35626 whole entry): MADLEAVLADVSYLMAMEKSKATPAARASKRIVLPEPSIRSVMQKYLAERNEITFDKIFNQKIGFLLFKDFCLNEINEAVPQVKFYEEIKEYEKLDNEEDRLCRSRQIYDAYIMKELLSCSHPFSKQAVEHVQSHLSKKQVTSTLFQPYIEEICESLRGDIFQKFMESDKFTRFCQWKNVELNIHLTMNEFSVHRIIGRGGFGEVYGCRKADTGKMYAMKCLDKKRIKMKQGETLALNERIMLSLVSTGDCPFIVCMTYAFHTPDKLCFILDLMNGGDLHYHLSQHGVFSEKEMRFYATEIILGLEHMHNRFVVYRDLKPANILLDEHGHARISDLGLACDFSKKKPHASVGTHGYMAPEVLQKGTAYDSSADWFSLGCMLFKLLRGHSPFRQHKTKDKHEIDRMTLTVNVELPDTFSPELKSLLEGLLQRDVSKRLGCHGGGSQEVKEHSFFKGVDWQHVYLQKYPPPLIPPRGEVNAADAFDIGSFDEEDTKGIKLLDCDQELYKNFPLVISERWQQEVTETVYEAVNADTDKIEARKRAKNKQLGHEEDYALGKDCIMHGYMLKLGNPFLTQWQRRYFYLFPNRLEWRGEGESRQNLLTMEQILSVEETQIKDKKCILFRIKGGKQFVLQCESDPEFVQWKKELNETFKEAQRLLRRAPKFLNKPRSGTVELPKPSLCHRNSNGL
Serine/threonine-protein kinase Nek6 (Homo sapiens), sequence (Q9HC98 whole entry): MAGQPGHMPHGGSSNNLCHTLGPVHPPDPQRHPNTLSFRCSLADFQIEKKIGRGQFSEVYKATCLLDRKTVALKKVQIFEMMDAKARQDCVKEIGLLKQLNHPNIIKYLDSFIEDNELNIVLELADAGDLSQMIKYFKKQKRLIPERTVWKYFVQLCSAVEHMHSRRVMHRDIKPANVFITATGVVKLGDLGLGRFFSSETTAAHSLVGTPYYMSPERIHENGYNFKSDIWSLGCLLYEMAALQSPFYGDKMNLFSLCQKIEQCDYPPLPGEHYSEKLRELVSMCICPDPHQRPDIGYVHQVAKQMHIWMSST

O=C(NC[C@@H]1[C@H]2CN(C(=O)OCc3cc(C(F)(F)F)cc(C(F)(F)F)c3)C[C@@H]12)c1ccc2[nH]nnc2c1 [BI 2545]
inactive: residual activity [1] 92% | residual activity [2] 100% | residual activity [3] 100% | residual activity [4] 96% | residual activity [5] 77% | residual activity [6] 70% | residual activity [7] 100% | residual activity [8] 100% | residual activity [9] 93% | residual activity [10] 100% | residual activity [11] 91% | residual activity [12] 100% | residual activity [13] 100% | residual activity [14] 90% | residual activity [15] 100% | residual activity [16] 100% | residual activity [17] 100% | residual activity [18] 83% | residual activity [19] 98% | residual activity [20] 69% | residual activity [21] 89% | residual activity [22] 100% | residual activity [23] 71% | residual activity [24] 98% | residual activity [25] 99% | residual activity [26] 100% | residual activity [27] 100% | residual activity [28] 98% | residual activity [29] 100% | residual activity [30] 97% | residual activity [31] 100% | residual activity [32] 100% | residual activity [33] 89% | residual activity [34] 100% | residual activity [35] 100% | residual activity [36] 66% | residual activity [37] 84% | residual activity [38] 100% | residual activity [39] 77% | residual activity [40] 89% | residual activity [41] 99% | residual activity [42] 100% | residual activity [43] 60% | inhibition [44] 17.9% | inhibition [45] 31.5%

Cc1nccc(COC(=O)N2C[C@@H]3[C@@H](CNC(=O)c4ccc5[nH]nnc5c4)[C@@H]3C2)n1 [BI 3017]
inactive: residual activity [1] 89% | residual activity [2] 93% | residual activity [3] 93% | residual activity [4] 100% | residual activity [5] 93% | residual activity [6] 72% | residual activity [7] 77% | residual activity [8] 75% | residual activity [9] 95% | residual activity [10] 100% | residual activity [11] 100% | residual activity [12] 100% | residual activity [13] 97% | residual activity [14] 70% | residual activity [15] 100% | residual activity [16] 84% | residual activity [17] 100% | residual activity [18] 84% | residual activity [19] 81% | residual activity [20] 96% | residual activity [21] 89% | residual activity [22] 94% | residual activity [23] 85% | residual activity [24] 84% | residual activity [25] 100% | residual activity [26] 100% | residual activity [27] 96% | residual activity [28] 99% | residual activity [29] 100% | residual activity [30] 80% | residual activity [31] 79% | residual activity [32] 100% | residual activity [33] 73% | residual activity [34] 100% | residual activity [35] 100% | residual activity [36] 100% | residual activity [37] 100% | residual activity [38] 100% | residual activity [39] 100% | residual activity [40] 90% | residual activity [41] 100% | residual activity [42] 90% | residual activity [43] 97% | inhibition [44] 4.4% | inhibition [45] -6.02%
